Measurements from patent publication US20220411471A1, “CELL-PERMEABLE CYCLIC PEPTIDES AND USES THEREOF” (Unnatural Products Inc., priority 2019, published 2022).
Starred links: 1 amine or outer side, 2 acyl side, 3 side chain; linkers in the order of their positions; H or OH if unused. Non-standard residues stand in square brackets, D forms with d. Residues, ends and D or L forms follow the SMILES beside them. Azetidine3carboxylic = O=C(C1CN([*:1])C1)[*:2]; Phe(4-Cl) = N[C@@H](Cc1ccc(Cl)cc1)C(=O)O; Phe(3-F) = N[C@@H](Cc1cccc(F)c1)C(=O)O; Phe(4-F) = N[C@@H](Cc1ccc(F)cc1)C(=O)O; 3Pal = N[C@@H](Cc1cccnc1)C(=O)O; 2Thi = N[C@@H](Cc1cccs1)C(=O)O; dNMeV = CN[C@@H](C(=O)O)C(C)C; Tle = CC(C)(C)[C@H](N)C(=O)O; NMeV = CN[C@H](C(=O)O)C(C)C; dPip = O=C(O)[C@H]1CCCCN1; NMeA = CN[C@@H](C)C(=O)O; Nme = COCCNCC(=O)O

molecular target: T1, Human MDM2 (HDM2) 1-116 (Homo sapiens, UniProt Q00987); assay: Fluorescence polarization assay, MDM2/p53 (Table 3); format: binding
T1 construct: Human MDM2 (HDM2) 1-116
T1 sequence (Q00987 1-116): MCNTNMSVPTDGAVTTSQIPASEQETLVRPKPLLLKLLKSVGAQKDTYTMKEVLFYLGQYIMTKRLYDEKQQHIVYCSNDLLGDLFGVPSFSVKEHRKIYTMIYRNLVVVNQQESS
Description: (§1) Human MDM2 (HDM2) 1-116 (20 μL) and FITC-labeled p53 (18-26), 50 nM and 10 nM respectively in 10 mM Tris, 50 mM NaCl, 0.01% Tween20, and 1 mM DTT at pH 7.4 were dispensed into an opaque, black, 384 well plate. Compounds dissolved in DMSO were pin transferred (˜200 nL) to the 384 well plate containing the MDM2/p53 solution. After incubation for 10 minutes, the fluorescence polarization was read on a Molecular Devices SpectraMax plate reader equipped with a Fluorescein FP cartridge. In addition to probe alone (positive control) and probe/MDM2 (negative control), a titration of linear p53(18-26) was included on every plate as an additional control. IC50 values were fit using either Prism or Collaborative Drug Discovery.
as §1, with “and FAM-labeled RFMDYWEGL-NH2,” for “and FITC-labeled p53 (18-26),”, “NaCl, 0.010%” for “NaCl, 0.01%”, “transferred (˜100-200” for “transferred (˜200”, “for 60” for “for 10”

| Compound | IC50 [µM] |
| --- | --- |
| COCCN1CC(=O)N(C)[C@@H](C)C(=O)N[C@@H](Cc2ccc(F)cc2)C(=O)N(C)[C@@H](C)C(=O)N[C@@H](Cc2ccc(Cl)cc2)C(=O)N2CCCC[C@@H]2C(=O)N2CCC[C@H]2C(=O)N[C@@H](Cc2ccccc2)C(=O)N[C@@H](C(C)(C)C)C(=O)N[C@@H](Cc2cccnc2)C1=O [Compound 21, COCCN1CC(=O)N(C)[C@@H](C)C(=O)N[C@@H](Cc2ccc(F)cc2)C(=O)N(C)[C@@H](C)C(=O)N[C@@H](Cc2ccc(Cl)cc2)C(=O)N2CCCC[C@@H]2C(=O)N2CCC[C@H]2C(=O)N[C@@H](Cc2ccccc2)C(=O)N[C@H](C(=O)N[C@@H](Cc2cccnc2)C1=O)C(C)(C)C] (cyclo([3Pal][Nme][NMeA][Phe(4-F)][NMeA][Phe(4-Cl)][dPip]PF[Tle])) | 1 to 2.5 |
| COCCN1CC(=O)N(C)[C@@H](C)C(=O)N[C@@H](Cc2ccc(F)cc2)C(=O)N(C)[C@@H](C)C(=O)N[C@@H](Cc2ccc(Cl)cc2)C(=O)N2CCCC[C@@H]2C(=O)N2CCC[C@H]2C(=O)N[C@@H](Cc2ccccc2)C(=O)N[C@@H](C(C)(C)C)C(=O)N[C@@H](Cc2cccc(F)c2)C1=O [Compound 22, COCCN1CC(=O)N(C)[C@@H](C)C(=O)N[C@@H](Cc2ccc(F)cc2)C(=O)N(C)[C@@H](C)C(=O)N[C@@H](Cc2ccc(Cl)cc2)C(=O)N2CCCC[C@@H]2C(=O)N2CCC[C@H]2C(=O)N[C@@H](Cc2ccccc2)C(=O)N[C@H](C(=O)N[C@@H](Cc2cccc(F)c2)C1=O)C(C)(C)C] (cyclo(F[Tle][Phe(3-F)][Nme][NMeA][Phe(4-F)][NMeA][Phe(4-Cl)][dPip]P)) | 1 to 2.5 |
| COCCN1CC(=O)N(C)[C@@H](C)C(=O)N[C@@H](Cc2ccc(F)cc2)C(=O)N(C)[C@@H](C)C(=O)N[C@@H](Cc2ccc(Cl)cc2)C(=O)N(C)[C@H](C(C)C)C(=O)N2CCC[C@H]2C(=O)N[C@@H](Cc2ccccc2)C(=O)N[C@@H](C(C)(C)C)C(=O)N[C@@H](Cc2cccc(F)c2)C1=O [Compound 24, COCCN1CC(=O)N(C)[C@@H](C)C(=O)N[C@@H](Cc2ccc(F)cc2)C(=O)N(C)[C@@H](C)C(=O)N[C@@H](Cc2ccc(Cl)cc2)C(=O)N(C)[C@H](C(C)C)C(=O)N2CCC[C@H]2C(=O)N[C@@H](Cc2ccccc2)C(=O)N[C@H](C(=O)N[C@@H](Cc2cccc(F)c2)C1=O)C(C)(C)C] (cyclo(F[Tle][Phe(3-F)][Nme][NMeA][Phe(4-F)][NMeA][Phe(4-Cl)][dNMeV]P)) | 1 to 2.5 |
| C[C@H]1C(=O)N[C@@H](Cc2cccnc2)C(=O)N2CCC[C@@H]2C(=O)N(C)[C@@H](C)C(=O)N[C@@H](Cc2ccc(F)cc2)C(=O)N[C@@H](C(C)(C)C)C(=O)N[C@@H](Cc2ccc(Cl)cc2)C(=O)N2CCCC[C@@H]2C(=O)N2CCC[C@H]2C(=O)N[C@@H](Cc2ccccc2)C(=O)N1C [Compound 26, C[C@@H]1N(C)C(=O)[C@H]2CCCN2C(=O)[C@H](Cc2cccnc2)NC(=O)[C@H](C)N(C)C(=O)[C@H](Cc2ccccc2)NC(=O)[C@@H]2CCCN2C(=O)[C@H]2CCCCN2C(=O)[C@H](Cc2ccc(Cl)cc2)NC(=O)[C@@H](NC(=O)[C@H](Cc2ccc(F)cc2)NC1=O)C(C)(C)C] (cyclo([3Pal][dP][NMeA][Phe(4-F)][Tle][Phe(4-Cl)][dPip]PF[NMeA])) | < 1 |
| CC(C)[C@H]1C(=O)N[C@@H](Cc2cccnc2)C(=O)N2CCC[C@@H]2C(=O)N(C)[C@@H](C)C(=O)N[C@@H](Cc2ccc(F)cc2)C(=O)N[C@@H](C(C)(C)C)C(=O)N[C@@H](Cc2ccc(Cl)cc2)C(=O)N2CCCC[C@@H]2C(=O)N2CCC[C@H]2C(=O)N[C@@H](Cc2ccccc2)C(=O)N1C [Compound 27, CC(C)[C@@H]1N(C)C(=O)[C@H](Cc2ccccc2)NC(=O)[C@@H]2CCCN2C(=O)[C@H]2CCCCN2C(=O)[C@H](Cc2ccc(Cl)cc2)NC(=O)[C@@H](NC(=O)[C@H](Cc2ccc(F)cc2)NC(=O)[C@H](C)N(C)C(=O)[C@H]2CCCN2C(=O)[C@H](Cc2cccnc2)NC1=O)C(C)(C)C] (cyclo([3Pal][dP][NMeA][Phe(4-F)][Tle][Phe(4-Cl)][dPip]PF[NMeV])) | 1 to 2.5 |
| C[C@H]1C(=O)N[C@@H](Cc2ccc(Cl)cc2)C(=O)N2CCCC[C@@H]2C(=O)N2CCC[C@H]2C(=O)N[C@@H](Cc2ccccc2)C(=O)N[C@@H](C(C)(C)C)C(=O)N[C@@H](Cc2cccnc2)C(=O)N2CCCC[C@@H]2C(=O)N(C)[C@@H](C)C(=O)N[C@@H](Cc2ccc(F)cc2)C(=O)N1C [Compound 28, C[C@@H]1N(C)C(=O)[C@H]2CCCCN2C(=O)[C@H](Cc2cccnc2)NC(=O)[C@@H](NC(=O)[C@H](Cc2ccccc2)NC(=O)[C@@H]2CCCN2C(=O)[C@H]2CCCCN2C(=O)[C@H](Cc2ccc(Cl)cc2)NC(=O)[C@H](C)N(C)C(=O)[C@H](Cc2ccc(F)cc2)NC1=O)C(C)(C)C] (cyclo([3Pal][dPip][NMeA][Phe(4-F)][NMeA][Phe(4-Cl)][dPip]PF[Tle])) | 1 to 2.5 |
| COCCN1CC(=O)N(C)[C@@H](C)C(=O)N[C@@H](Cc2ccc(F)cc2)C(=O)N[C@@H](C(C)(C)C)C(=O)N[C@@H](Cc2ccc(Cl)cc2)C(=O)N2CCCC[C@@H]2C(=O)N2CCC[C@H]2C(=O)N[C@@H](Cc2ccccc2)C(=O)N[C@@H](C(C)(C)C)C(=O)N[C@@H](Cc2cccnc2)C1=O [Compound 29, COCCN1CC(=O)N(C)[C@@H](C)C(=O)N[C@@H](Cc2ccc(F)cc2)C(=O)N[C@H](C(=O)N[C@@H](Cc2ccc(Cl)cc2)C(=O)N2CCCC[C@@H]2C(=O)N2CCC[C@H]2C(=O)N[C@@H](Cc2ccccc2)C(=O)N[C@H](C(=O)N[C@@H](Cc2cccnc2)C1=O)C(C)(C)C)C(C)(C)C] (cyclo([3Pal][Nme][NMeA][Phe(4-F)][Tle][Phe(4-Cl)][dPip]PF[Tle])) | < 1 |
| COCCN1CC(=O)N(C)[C@@H](C)C(=O)N[C@@H](Cc2ccc(F)cc2)C(=O)N(C)[C@@H](C)C(=O)N[C@@H](Cc2ccc(Cl)cc2)C(=O)N2CCCC[C@@H]2C(=O)N2CCC[C@H]2C(=O)N[C@@H](Cc2ccccc2)C(=O)N[C@@H](C(C)(C)C)C(=O)N[C@@H](Cc2ccc(O)cc2)C1=O [Compound 30, [H]Oc1ccc(C[C@@H]2NC(=O)[C@@H](NC(=O)[C@H](Cc3ccccc3)NC(=O)[C@@H]3CCCN3C(=O)[C@H]3CCCCN3C(=O)[C@H](Cc3ccc(Cl)cc3)NC(=O)[C@H](C)N(C)C(=O)[C@H](Cc3ccc(F)cc3)NC(=O)[C@H](C)N(C)C(=O)CN(CCOC)C2=O)C(C)(C)C)cc1] (cyclo(F[Tle]Y[Nme][NMeA][Phe(4-F)][NMeA][Phe(4-Cl)][dPip]P)) | 2.5 to 5 |

More lines, now with the values ahead:

| IC50 [µM] | Compound |
| --- | --- |
| < 1 | C[C@H]1C(=O)N[C@@H](Cc2ccc(F)cc2)C(=O)N[C@@H](C(C)(C)C)C(=O)N[C@@H](Cc2ccc(Cl)cc2)C(=O)N2CCCC[C@@H]2C(=O)N2CCC[C@H]2C(=O)N[C@@H](Cc2ccccc2)C(=O)N2CC(C2)C(=O)N[C@@H](Cc2cccnc2)C(=O)N2CCC[C@@H]2C(=O)N1C [Compound 19, C[C@@H]1N(C)C(=O)[C@H]2CCCN2C(=O)[C@H](Cc2cccnc2)NC(=O)C2CN(C2)C(=O)[C@H](Cc2ccccc2)NC(=O)[C@@H]2CCCN2C(=O)[C@H]2CCCCN2C(=O)[C@H](Cc2ccc(Cl)cc2)NC(=O)[C@@H](NC(=O)[C@H](Cc2ccc(F)cc2)NC1=O)C(C)(C)C] (cyclo([3Pal][dP][NMeA][Phe(4-F)][Tle][Phe(4-Cl)][dPip]PF[Azetidine3carboxylic])) |
| < 1 | COCCN1CC(=O)N(C)[C@@H](C)C(=O)N[C@@H](Cc2ccc(F)cc2)C(=O)N(C)[C@@H](C)C(=O)N[C@@H](Cc2ccc(Cl)cc2)C(=O)N2CCCC[C@@H]2C(=O)N2CCC[C@H]2C(=O)N[C@@H](Cc2cccs2)C(=O)N[C@@H](C(C)(C)C)C(=O)N[C@@H](Cc2cccnc2)C1=O [Compound 20, COCCN1CC(=O)N(C)[C@@H](C)C(=O)N[C@@H](Cc2ccc(F)cc2)C(=O)N(C)[C@@H](C)C(=O)N[C@@H](Cc2ccc(Cl)cc2)C(=O)N2CCCC[C@@H]2C(=O)N2CCC[C@H]2C(=O)N[C@@H](Cc2cccs2)C(=O)N[C@H](C(=O)N[C@@H](Cc2cccnc2)C1=O)C(C)(C)C] (cyclo([2Thi][Tle][3Pal][Nme][NMeA][Phe(4-F)][NMeA][Phe(4-Cl)][dPip]P)) |
| < 1 | COCCN1CC(=O)N(C)[C@@H](C)C(=O)N[C@@H](Cc2ccc(F)cc2)C(=O)N(C)[C@@H](C)C(=O)N[C@@H](Cc2ccc(Cl)cc2)C(=O)N(C)[C@H](C(C)C)C(=O)N2CCC[C@H]2C(=O)N[C@@H](Cc2ccccc2)C(=O)N[C@@H](C(C)(C)C)C(=O)N[C@@H](Cc2cccnc2)C1=O [Compound 23, COCCN1CC(=O)N(C)[C@@H](C)C(=O)N[C@@H](Cc2ccc(F)cc2)C(=O)N(C)[C@@H](C)C(=O)N[C@@H](Cc2ccc(Cl)cc2)C(=O)N(C)[C@H](C(C)C)C(=O)N2CCC[C@H]2C(=O)N[C@@H](Cc2ccccc2)C(=O)N[C@H](C(=O)N[C@@H](Cc2cccnc2)C1=O)C(C)(C)C] (cyclo([3Pal][Nme][NMeA][Phe(4-F)][NMeA][Phe(4-Cl)][dNMeV]PF[Tle])) |
| < 1 | COCCN1CC(=O)N[C@@H](Cc2ccc(Cl)cc2)C(=O)N2CCCC[C@@H]2C(=O)N2CCC[C@H]2C(=O)N[C@@H](Cc2cccs2)C(=O)N[C@@H](C(C)(C)C)C(=O)N[C@@H](Cc2cccnc2)C(=O)N2CCC[C@@H]2C(=O)N(C)[C@@H](C)C(=O)N[C@@H](Cc2ccc(F)cc2)C1=O [Compound 25, COCCN1CC(=O)N[C@@H](Cc2ccc(Cl)cc2)C(=O)N2CCCC[C@@H]2C(=O)N2CCC[C@H]2C(=O)N[C@@H](Cc2cccs2)C(=O)N[C@H](C(=O)N[C@@H](Cc2cccnc2)C(=O)N2CCC[C@@H]2C(=O)N(C)[C@@H](C)C(=O)N[C@@H](Cc2ccc(F)cc2)C1=O)C(C)(C)C] (cyclo([2Thi][Tle][3Pal][dP][NMeA][Phe(4-F)][Nme][Phe(4-Cl)][dPip]P)) |
